From US20020198215A1 (priority 2000, published 2002)

How the values were obtained:
[1] = cited from earlier work
[2] = Calculation of the release rate for a terazosin transdermal delivery system from literature pharmacokinetic data; conditions: product of steady state concentration and clearance rate
Text: Therefore, an equal dose is required to be delivered transdermally. […] The largest desirable surface area for a transdermal patch is about 40 cm^2. […] To account for drug elimination, further pharmacokinetic data and physiological data was required. […] The largest desirable surface area for a transdermal patch is about 40 cm^2. […] One of skill would expect a different input rate or flux to maintain a steady state concentration in consideration of the rate of loss of drug in the plasma due to elimination. A confirmatory calculation for flux requires further pharmacokinetic parameters. […] The largest desirable surface area for a transdermal patch is about 40 cm^2. […], yields a release rate of […] of transdermal patch surface area.

[3] = terazosin therapy; cited from earlier work
plasma proteins = conditions: cited from earlier work
[4] = after oral administration; cited from earlier work

## COc1cc2nc(N3CCN(C(=O)C4CCCO4)CC3)nc(N)c2cc1OC (stereo not drawn) [terazosin, Terazosin]
[1]; hemodialysis
  removed during hemodialysis: 10%
[1]; impaired renal function
  effect of impaired renal function on elimination: no significant effect
[1]; in vivo
  dose excreted renally as unchanged drug: 10%
  physiological clearance rate: 4,800 ml/hour
  plasma concentration at steady state: 45 ng/mL
[1]; oral administration
  first-pass effect: minimal first-pass effect
  time of peak plasma levels after administration: about 1 hour
[1]; oral dose, gastrointestinal absorption
  bioavailability: 90%
[1]; oral, presence of food
  effect of food on terazosin bioavailability: no significant effect
[1]; oral, with food
  delay of time to peak concentrations by food: about 1 hour
[1]; treatments from 1 to 5 days, dosages up to 40 mg
  plasma drug concentrations versus dosage: increased proportionately
[2]
  dosing rate: 216 µg/h
[3]
  adverse effect: asthenia (weakness, tiredness, and fatigue): 11%
  adverse effect: dizziness: 19%
  adverse effect: drowsiness: 5%
  adverse effect: headache: 16%
  adverse effect: nasal congestion: 6%
  adverse effect: nausea/vomiting: 4.4%
  adverse effect: peripheral edema: 6%
Plasma proteins
  bound to plasma proteins: 90-94%
[4]
  time until antihypertensive effects are seen: ≤ 15 min
